Experiments:
[1] = biological target: T1, PKAR3 (protein kinase A regulatory subunit 3) (Leishmania donovani, UniProt A0A3S7X836); assay: isothermal titration calorimetry (ITC), one-site model; type: binding
T1 construct: gene LdCL_340034800

[2] = biological target: subpellicular microtubules (SPMT) of L. donovani promastigotes, detected as β-tubulin (L. donovani (endogenous in promastigotes)); assay: FRET or BRET; fixed L. donovani promastigotes labelled with primary antibodies and secondary antibodies with Alexa Fluor 568 (donor) and 647 (acceptor); corrected acceptor FRET (Youvan), confocal microscopy

T1 sequence (A0A3S7X836 entry or part of it): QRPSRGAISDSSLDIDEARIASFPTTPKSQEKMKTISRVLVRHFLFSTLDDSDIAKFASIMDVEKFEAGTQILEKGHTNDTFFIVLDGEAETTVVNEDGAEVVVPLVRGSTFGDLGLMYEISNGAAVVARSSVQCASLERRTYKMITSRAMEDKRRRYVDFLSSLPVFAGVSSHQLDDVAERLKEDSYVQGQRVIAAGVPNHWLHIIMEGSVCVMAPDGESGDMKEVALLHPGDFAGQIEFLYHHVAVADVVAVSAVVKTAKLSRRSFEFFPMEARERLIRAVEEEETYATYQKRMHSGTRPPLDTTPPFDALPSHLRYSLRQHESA

| Compound | Kd [1] | decrease of FRET-positive pixels per cell against PKAR3FL [2] |
| --- | --- | --- |
| N#Cc1cn([C@@H]2O[C@H](CO)[C@@H](O)[C@H]2O)c2ncnc(O)c12 [7-CN-7-C-Ino, 7-cyano-7-deaza-inosine] | 1 nM | – |
| N#Cc1cn([C@@H]2O[C@H](CO)[C@@H](O)[C@H]2O)c2ncnc(N)c12 [Toyo, Toyocamycin] | 3.8 nM | – |
| L. donovani PKAR3 lacking the N-terminal 90 amino acids (domain or fragment) | – | 30% |

Source: publication PMC11006142, “A divergent protein kinase A regulatory subunit essential for morphogenesis of the human pathogen Leishmania” (PLOS Pathogens, 2024)
